# According to patent US9994581B2, “Bromodomain inhibitors” (AbbVie Inc., priority 2013, dated 2018):
# Like-named read-outs stand apart in the source and are kept apart here.
# Tests used:
# [1] = system: breast cancer cell line MX-1; assay: MX-1 cell line proliferation assay (3-day, Cell Titer Glo); type: cell-based; conditions: 72 hours, read-out: Cellular proliferation: EC50
# Protocol: The impact of compounds of the Examples on cancer cell proliferation was determined using the breast cancer cell line MX-1 (ATCC) in a 3-day proliferation assay and the data are reported in Table 1. […] For compound testing, MX-1 cells were plated in 96-well black bottom plates at a density of 5000 cells/well in 90 μL of culture media and incubated at 37° overnight to allow cell adhesion and spreading. Compound dilution series were prepared in DMSO via a 3-fold serial dilution from 3 mM to 0.1 μM. The DMSO dilution series were then diluted 1:100 in phosphate buffered saline, and 10 μL of the resulted solution were added to the appropriate wells of the MX-1 cell plate. The final compound concentrations in the wells were 3, 1, 0.3, 0.1, 0.03, 0.01, 0.003, 0.001, 0.0003, and 0.0001 μM, or 1, 0.3, 0.1, 0.03, 0.01, 0.003, 0.001, 0.0003, 0.0001, and 0.00003 μM.
# Luminescence readings from the Cell Titer Glo assay were normalized to the DMSO treated cells and analyzed using the GraphPad Prism software with sigmoidal curve fitting to obtain EC50s.
# [2] = biological target: BRD4 (BDI-BDII_K57-K550) (Homo sapiens, UniProt O60885); assay: TR-FRET bromodomain binding assay; conditions: His-tagged tandem bromodomain, Alexa647-labeled probe; Ki calculated from IC50s, probe Kd and probe concentration
# Protocol: A time-resolved fluorescence resonance energy transfer (TR-FRET) assay was used to determine the affinities of compounds of the Examples listed in Table 1 for the tandem domain of bromodomain BRD4. […] An Alexa647-labeled BET-inhibitor was used as the fluorescent probe in the assay.
# TR-FRET data were normalized to the means of 24 no-compound controls (“high”) and 8 controls containing 1 μM un-labeled probe (“low”). Percent inhibition was plotted as a function of compound concentration and the data were fit with the 4 parameter logistic equation to obtain IC50s. Inhibition constants (Ki) were calculated from the IC50s, probe Kd and probe concentration. Typical Z′ values were between 0.65 and 0.75.
Structure (SMILES),"EC50 ([1]; Homo sapiens, MX1, MX-1 cells)",Ki [2],EC50 ([1]; MX-1 cells)
"CCS(=O)(=O)c1ccc2c(c1)-c1cn(C)c(=O)cc1OCCCc1ccccc1O2 [Example A-1, 16-(ethylsulfonyl)-2-methyl-7,8-dihydro-2H-dibenzo[4,5:7,8][1,6]dioxacycloundecino[3,2-c]pyridin-3(6H)-one]",6.89 nM,4.58 nM,–
"CCS(=O)(=O)c1ccc2c(c1)-c1cn(C)c(=O)cc1OCCc1ccccc1O2 [Example A-2, 3-(ethylsulfonyl)-6-methyl-10,11-dihydrodibenzo[4,5:7,8][1,6]dioxecino[3,2-c]pyridin-7(6H)-one]",–,234 nM,709 nM
"CCS(=O)(=O)c1ccc2c(c1)-c1cn(C)c(=O)cc1OCCCCc1ccccc1O2 [Example A-4, 17-(ethylsulfonyl)-2-methyl-6,7,8,9-tetrahydrodibenzo[4,5:7,8][1,6]dioxacyclododecino[3,2-c]pyridin-3(2H)-one]",10.4 nM,3.07 nM,–
"Cn1cc2c(cc1=O)OCCCc1cc(Cl)ccc1Oc1ccc(N)cc1-2 [Example A-7, 16-amino-10-chloro-2-methyl-7,8-dihydro-2H-dibenzo[4,5:7,8][1,6]dioxacycloundecino[3,2-c]pyridin-3(6H)-one]",109 nM,25.7 nM,–
"Cn1cc2c(cc1=O)OCCCCc1cc(Cl)ccc1Oc1ccc(N)cc1-2 [Example A-8, 17-amino-11-chloro-2-methyl-6,7,8,9-tetrahydrodibenzo[4,5:7,8][1,6]dioxacyclododecino[3,2-c]pyridin-3(2H)-one]",–,25.2 nM,–
"CCNC(=O)Nc1ccc2c(c1)-c1cn(C)c(=O)cc1OCCCc1cc(Cl)ccc1O2 [Example A-10, 1-(10-chloro-2-methyl-3-oxo-3,6,7,8-tetrahydro-2H-dibenzo[4,5:7,8][1,6]dioxacycloundecino[3,2-c]pyridin-16-yl)-3-ethylurea]",347 nM,35.2 nM,–
"CC(=O)Nc1ccc2c(c1)-c1cn(C)c(=O)cc1OCCCc1cc(Cl)ccc1O2 [Example A-11, N-(10-chloro-2-methyl-3-oxo-3,6,7,8-tetrahydro-2H-dibenzo[4,5:7,8][1,6]dioxacycloundecino[3,2-c]pyridin-16-yl)acetamide]",30.6 nM,5.37 nM,–
"CCS(=O)(=O)Nc1ccc2c(c1)-c1cn(C)c(=O)cc1OCC/C=C/Cc1cc(Cl)ccc1O2 [Example A-15, (E)-N-(12-chloro-2-methyl-3-oxo-3,6,7,10-tetrahydro-2H-dibenzo[4,5:7,8][1,6]dioxacyclotridecino[3,2-c]pyridin-18-yl)ethanesulfonamide]",42.4 nM,3.06 nM,–
"CCS(=O)(=O)Nc1ccc2c(c1)-c1cn(C)c(=O)cc1OCCC/C=C/c1cc(Cl)ccc1O2 [Example A-16, (E)-N-(12-chloro-2-methyl-3-oxo-3,6,7,8-tetrahydro-2H-dibenzo[4,5:7,8][1,6]dioxacyclotridecino[3,2-c]pyridin-18-yl)ethanesulfonamide]",15.2 nM,1.66 nM,–
"CCS(=O)(=O)Nc1ccc2c(c1)-c1cn(C)c(=O)cc1OC(C)CCCc1cc(Cl)ccc1O2 (centres unmarked) [Example A-17, N-(11-chloro-2,6-dimethyl-3-oxo-2,3,6,7,8,9-hexahydrodibenzo[4,5:7,8][1,6]dioxacyclododecino[3,2-c]pyridin-17-yl)ethanesulfonamide]",7.82 nM,2.25 nM,–
"CCS(=O)(=O)Nc1ccc2c(c1)-c1cn(C)c(=O)cc1OCC/C=C/c1cc(Cl)ccc1O2 [Example A-18, (E)-N-(11-chloro-2-methyl-3-oxo-2,3,6,7-tetrahydrodibenzo[4,5:7,8][1,6]dioxacyclododecino[3,2-c]pyridin-17-yl)ethanesulfonamide]",8.87 nM,4.06 nM,–
"CCS(=O)(=O)Nc1ccc2c(c1)-c1cn(C)c(=O)cc1OCCCCCc1cc(Cl)ccc1O2 [Example A-19, N-(12-chloro-2-methyl-3-oxo-3,6,7,8,9,10-hexahydro-2H-dibenzo[4,5:7,8][1,6]dioxacyclotridecino[3,2-c]pyridin-18-yl)ethanesulfonamide]",16.2 nM,2.45 nM,–
"Cn1cc2c(cc1=O)OCCCCc1cc(F)cc(F)c1Oc1ccc(S(=O)(=O)C3CC3)cc1-2 [Example A-21, 17-(cyclopropylsulfonyl)-11,13-difluoro-2-methyl-6,7,8,9-tetrahydrodibenzo[4,5:7,8][1,6]dioxacyclododecino[3,2-c]pyridin-3(2H)-one]",5.71 nM,0.88 nM,–
"CCS(=O)(=O)c1ccc2c(c1)-c1cn(C)c(=O)cc1OCCCCc1ccc(F)cc1O2 [Example A-23, 17-(ethylsulfonyl)-12-fluoro-2-methyl-6,7,8,9-tetrahydrodibenzo[4,5:7,8][1,6]dioxacyclododecino[3,2-c]pyridin-3(2H)-one]",7.86 nM,1.27 nM,–
"CCS(=O)(=O)c1ccc2c(c1)-c1cn(C)c(=O)cc1OCC/C=C/c1ccc(Cl)cc1O2 [Example A-24, (E)-12-chloro-17-(ethylsulfonyl)-2-methyl-6,7-dihydrodibenzo[4,5:7,8][1,6]dioxacyclododecino[3,2-c]pyridin-3(2H)-one]",16.4 nM,3.34 nM,–
"CCS(=O)(=O)c1ccc2c(c1)-c1cn(C)c(=O)cc1OCCCCc1ccc(Cl)cc1O2 [Example A-25, 12-chloro-17-(ethylsulfonyl)-2-methyl-6,7,8,9-tetrahydrodibenzo[4,5:7,8][1,6]dioxacyclododecino[3,2-c]pyridin-3(2H)-one]",10.8 nM,1.29 nM,–
"CCS(=O)(=O)Nc1ccc2c(c1)-c1cn(C)c(=O)cc1OCCCCc1ccncc1O2 [Example A-26, N-(2-methyl-3-oxo-2,3,6,7,8,9-hexahydrobenzo[4,5][1,6]dioxacyclododecino[3,2-c:7,8-c′]dipyridin-17-yl)ethanesulfonamide]",14.9 nM,2.01 nM,–
"Cn1cc2c(cc1=O)OCCCCc1cc(Cl)ccc1Oc1ncccc1-2 [Example A-27, 11-chloro-2-methyl-6,7,8,9-tetrahydrobenzo[11,12][1,6]dioxacyclododecino[2,3-b:4,5-c′]dipyridin-3(2H)-one]",62.8 nM,12.2 nM,–
"Cn1cc2c(cc1=O)OCCCCc1ccncc1Oc1ccc(N)cc1-2 [Example A-28, 17-amino-2-methyl-6,7,8,9-tetrahydrobenzo[4,5][1,6]dioxacyclododecino[3,2-c:7,8-c′]dipyridin-3(2H)-one]",> 1000 nM,85.9 nM,–
"CCS(=O)(=O)Nc1ccc2c(c1)-c1cn(C)c(=O)cc1OCCCCc1cc(C(F)(F)F)ccc1O2 [Example A-29, N-[2-methyl-3-oxo-11-(trifluoromethyl)-2,3,6,7,8,9-hexahydrodibenzo[4,5:7,8][1,6]dioxacyclododecino[3,2-c]pyridin-17-yl]ethanesulfonamide]",3.97 nM,0.74 nM,–
"Cn1cc2c(cc1=O)OCCCCc1cc(OC(F)(F)F)ccc1Oc1ccc(NS(C)(=O)=O)cc1-2 [Example A-30, N-[2-methyl-3-oxo-11-(trifluoromethoxy)-2,3,6,7,8,9-hexahydrodibenzo[4,5:7,8][1,6]dioxacyclododecino[3,2-c]pyridin-17-yl]methanesulfonamide]",8.77 nM,1.15 nM,–
"COC(=O)c1cnc2c(c1)-c1cn(C)c(=O)cc1OCCCCc1cc(Cl)ccc1O2 [Example A-31, methyl 11-chloro-2-methyl-3-oxo-2,3,6,7,8,9-hexahydrobenzo[11,12][1,6]dioxacyclododecino[2,3-b:4,5-c′]dipyridine-17-carboxylate]",302 nM,24.3 nM,–
"Cn1cc2c(cc1=O)OCCCCc1cc(Cl)ccc1Oc1ncc(N)cc1-2 [Example A-32, 17-amino-11-chloro-2-methyl-6,7,8,9-tetrahydrobenzo[11,12][1,6]dioxacyclododecino[2,3-b:4,5-c′]dipyridin-3(2H)-one]",–,88.7 nM,–
"CCS(=O)(=O)c1cnc2c(c1)-c1cn(C)c(=O)cc1OCCCCc1cc(Cl)ccc1O2 [Example A-34, 11-chloro-17-(ethylsulfonyl)-2-methyl-6,7,8,9-tetrahydrobenzo[11,12][1,6]dioxacyclododecino[2,3-b:4,5-c′]dipyridin-3(2H)-one]",33.3 nM,6.92 nM,–
"CCS(=O)(=O)Nc1cnc2c(c1)-c1cn(C)c(=O)cc1OCCCCc1cc(F)cc(F)c1O2 [Example A-35, N-(11,13-difluoro-2-methyl-3-oxo-2,3,6,7,8,9-hexahydrobenzo[11,12][1,6]dioxacyclododecino[2,3-b:4,5-c′]dipyridin-17-yl)ethanesulfonamide]",4.18 nM,0.68 nM,–
"CCS(=O)(=O)Nc1ccc2c(c1)-c1cn(C)c(=O)cc1OCCCCc1cc(OC(F)(F)F)ccc1O2 [Example A-37, N-[2-methyl-3-oxo-11-(trifluoromethoxy)-2,3,6,7,8,9-hexahydrodibenzo[4,5:7,8][1,6]dioxacyclododecino[3,2-c]pyridin-17-yl]ethanesulfonamide]",6.12 nM,0.87 nM,–
